Starred links: 1 amine or outer side, 2 acyl side, 3 side chain; linkers in the order of their positions; H or OH if unused. Positions of bridges follow the written chain, without caps; N, C: chain ends. Non-standard residues stand in square brackets, D forms with d. Residues, ends and D or L forms follow the SMILES beside them. *: point of attachment. hPhe(3-Cl-4-CF3) = N[C@@H](CCc1ccc(C(F)(F)F)c(Cl)c1)C(=O)O; NMeDab(N,N-(CH2CF2CH2)) = CN[C@@H](CCN1CC(F)(F)C1)C(=O)O; hPhe(3-F,4-CF3) = N[C@@H](CCc1ccc(C(F)(F)F)c(F)c1)C(=O)O; X23 = CN([C@@H](Cc1ccccc1OC(F)(F)F)C(=O)[*:2])[*:1]; NMePhe(4-Cl) = CN[C@@H](Cc1ccc(Cl)cc1)C(=O)O; NMePhe(2-Cl) = CN[C@@H](Cc1ccccc1Cl)C(=O)O; NMePhe(3-F) = CN[C@@H](Cc1cccc(F)c1)C(=O)O; NMedβ3hAla = C[C@H](CC(=O)[*:2])N(C)[*:1]; Abu(4,4,4-F3) = N[C@@H](CC(F)(F)F)C(=O)O; hNle(7,7-F2) = N[C@@H](CCCCC(F)F)C(=O)O; NMeGly(cPent) = CN[C@H](C(=O)O)C1CCCC1; Phe(3-I) = N[C@@H](Cc1cccc(I)c1)C(=O)O; Pro(4,4-F2) = O=C(O)[C@@H]1CC(F)(F)CN1; NMeCha = CN[C@@H](CC1CCCCC1)C(=O)O; NMeChg = CN[C@H](C(=O)O)C1CCCCC1; N(CH2CH2)2CF2 = FC1(F)CCN(*)CC1; Gly(cPr) = N[C@H](C(=O)O)C1CC1; NMeD = CN[C@@H](CC(=O)O)C(=O)O; NMeL = CN[C@@H](CC(C)C)C(=O)O; NMeV = CN[C@H](C(=O)O)C(C)C; d(β3hA) = C[C@@H](N)CC(=O)O; Morpholide = C1CN(*)CCO1; NMeA = CN[C@@H](C)C(=O)O; NMeAib = CNC(C)(C)C(=O)O; Nle = CCCC[C@H](N)C(=O)O; Piperidide = C1CCN(*)CC1; Pyrrolidide = C1CCN(*)C1; dNMeA = CN[C@H](C)C(=O)O; Ac5c = NC1(C(=O)O)CCCC1; Aze = O=C(O)[C@@H]1CCN1; Sar = CNCC(=O)O
target: T1, Kras and SOS1 (biotin-tagged human Kras loaded with GDP, His-tagged human SOS1) (Homo sapiens, UniProt P01116, G12D); assay: Protein-protein interaction inhibition between Kras and SOS1 (KrasGl2D-SOS PPI) using AlphaScreen; type: binding; conditions: AlphaScreen; biotin-tagged human Kras loaded with GDP, His-tagged human SOS1; read-out: KRAS G12D-SOS PPI IC50
T1 construct: made in house; host or cells: E. coli (stated for Kras only)
T1 sequence (P01116 1-188 isoform P01116-2 G12D): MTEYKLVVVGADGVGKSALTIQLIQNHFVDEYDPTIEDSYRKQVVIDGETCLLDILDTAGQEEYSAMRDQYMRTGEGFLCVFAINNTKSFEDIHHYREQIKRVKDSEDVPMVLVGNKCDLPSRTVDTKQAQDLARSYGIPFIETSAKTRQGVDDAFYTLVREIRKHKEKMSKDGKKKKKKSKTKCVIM
Procedure: Protein-Protein Interaction Inhibition Between Kras and SOS1 (KrasGl2D-SOS PPI) Using AlphaScreen
Protein-protein interaction inhibition (PPI) between Kras and SOS1 was measured by energy transfer from nickel-conjugated donor beads to streptavidin-conjugated acceptor beads using biotin-tagged human Kras expressed in E. coli and loaded with GDP after purification and His-tagged human SOS1 enzyme. This measurement utilizes the phenomenon in which donor beads are irradiated with light at 680 nm, such that energy is transferred to acceptor beads through singlet oxygen and light at 520-620 nm is detected from the acceptor beads.
Inhibition of binding between K-ras and SOS1 is known to inhibit signaling downstream of Kras.

`CC[C@H](C)[C@@H]1NC(=O)[C@H](C)N(C)C(=O)C[C@@H](C)NC(=O)[C@H](C(C)C)N(C)C(=O)C2(CCCC2)NC(=O)[C@@H]2CCCN2C(=O)[C@H](CCc2ccc(C(F)(F)F)c(Cl)c2)NC(=O)[C@H]2CCCN2C(=O)[C@H](CC2CCCCC2)N(C)C(=O)[C@@H]2CCN2C(=O)CN(C)C1=O` [Compound 77] (cyclo([Ac5c][NMeV][d(β3hA)][NMeA]I[Sar][Aze][NMeCha][dP][hPhe(3-Cl-4-CF3)]P)) and `CC[C@H](C)[C@@H]1NC(=O)[C@H](C)N(C)C(=O)C[C@@H](C)NC(=O)[C@H](C2CCCC2)N(C)C(=O)C2(CCCC2)NC(=O)[C@@H]2CCCN2C(=O)[C@H](CCc2ccc(C(F)(F)F)c(Cl)c2)NC(=O)[C@@H](C)N(C)C(=O)[C@H](CC(C)C)N(C)C(=O)[C@@H]2CCN2C(=O)[C@H](C)N(C)C1=O` [Compound 98] (cyclo([Ac5c][NMeGly(cPent)][d(β3hA)][NMeA]I[NMeA][Aze][NMeL][dNMeA][hPhe(3-Cl-4-CF3)]P)) are within 1.5-fold of each other in IC50: 0.1 µM for the first, 0.068 µM for the second.

Going from `CC[C@H](C)[C@@H]1NC(=O)[C@H](C)N(C)C(=O)C[C@@H](C)NC(=O)[C@H](C2CCCC2)N(C)C(=O)C2(CCCC2)NC(=O)[C@@H]2CCCN2C(=O)[C@H](CCc2ccc(C(F)(F)F)c(Cl)c2)NC(=O)CN(C)C(=O)[C@H](Cc2ccccc2Cl)N(C)C(=O)[C@@H]2CCCN2C(=O)CN(C)C1=O` [Compound 82] (cyclo([Ac5c][NMeGly(cPent)][d(β3hA)][NMeA]I[Sar]P[NMePhe(2-Cl)][Sar][hPhe(3-Cl-4-CF3)]P)) to `CC[C@H](C)[C@@H]1NC(=O)[C@H](C)N(C)C(=O)C[C@@H](C)NC(=O)[C@H](C2CCCC2)N(C)C(=O)C2(CCCC2)NC(=O)[C@@H]2CCCN2C(=O)[C@H](CCc2ccc(C(F)(F)F)c(Cl)c2)NC(=O)[C@@H](C)N(C)C(=O)[C@H](C(C)C)N(C)C(=O)CN(C)C(=O)CN(C)C1=O` [Compound 109] (cyclo([Ac5c][NMeGly(cPent)][d(β3hA)][NMeA]I[Sar][Sar][NMeV][dNMeA][hPhe(3-Cl-4-CF3)]P)), the IC50 falls from 0.14 µM to 0.04 µM (3.5-fold).

`CC(C)C[C@H]1C(=O)N[C@@H](CCCCC(F)F)C(=O)N(C)CC(=O)N(C)CC(=O)N(C)[C@@H](CC2CCCCC2)C(=O)N(C)CC(=O)N[C@@H](CCc2ccc(C(F)(F)F)c(Cl)c2)C(=O)N2CCC[C@H]2C(=O)NC2(CCCC2)C(=O)N(C)[C@@H](C2CCCCC2)C(=O)N(C)[C@H](C(=O)N2CCCCC2)CC(=O)N1C` [Compound 92] ([NMeL][hNle(7,7-F2)][Sar][Sar][NMeCha][Sar][hPhe(3-Cl-4-CF3)]P[Ac5c][NMeChg][NMeD]-Piperidide; lactam N-11) and `CC[C@H](C)[C@@H]1NC(=O)[C@H](CC(C)C)N(C)C(=O)C[C@@H](C)N(C)C(=O)[C@H](C2CCCC2)N(C)C(=O)C2(CCCC2)NC(=O)[C@@H]2CC(F)(F)CN2C(=O)[C@H](CCc2ccc(C(F)(F)F)c(Cl)c2)NC(=O)CN(C)C(=O)[C@H](CC2CCCCC2)N(C)C(=O)CN(C)C(=O)CN(C)C1=O` [Compound 107] (cyclo([Ac5c][NMeGly(cPent)][NMedβ3hAla][NMeL]I[Sar][Sar][NMeCha][Sar][hPhe(3-Cl-4-CF3)][Pro(4,4-F2)])) are within 1.5-fold of each other in IC50: 0.0055 µM for the first, 0.004 µM for the second.

First: CC[C@H](C)[C@@H]1NC(=O)[C@H](C)N(C)C(=O)C[C@@H](C)NC(=O)[C@H](C(C)C)N(C)C(=O)C(C)(C)N(C)C(=O)[C@@H]2CCCN2C(=O)[C@H](CCc2ccc(C(F)(F)F)c(Cl)c2)NC(=O)CN(C)C(=O)[C@H](CC2CCCCC2)N(C)C(=O)CN(C)C(=O)CN(C)C1=O [Compound 93] (cyclo(I[Sar][Sar][NMeCha][Sar][hPhe(3-Cl-4-CF3)]P[NMeAib][NMeV][d(β3hA)][NMeA]))
Second: CC(C)C[C@H]1C(=O)N[C@@H](C2CC2)C(=O)N(C)CC(=O)N(C)CC(=O)N(C)[C@@H](CC2CCCCC2)C(=O)N(C)CC(=O)N[C@@H](CCc2ccc(C(F)(F)F)c(Cl)c2)C(=O)N2CCC[C@H]2C(=O)NC2(CCCC2)C(=O)N(C)[C@@H](C(C)C)C(=O)N[C@H](C)CC(=O)N1C [Compound 101] (cyclo([Ac5c][NMeV][d(β3hA)][NMeL][Gly(cPr)][Sar][Sar][NMeCha][Sar][hPhe(3-Cl-4-CF3)]P))
The IC50 of the first is 23-fold lower: 0.0069 µM for the first, 0.16 µM for the second.

`CC[C@H](C)[C@@H]1NC(=O)[C@H](CC(C)C)N(C)C(=O)C[C@@H](C(=O)N(C)C)N(C)C(=O)[C@H](C2CCCC2)N(C)C(=O)C2(CCCC2)NC(=O)[C@H](Cc2cccc(F)c2)N(C)C(=O)[C@H](CCc2ccc(C(F)(F)F)c(Cl)c2)NC(=O)CN(C)C(=O)[C@H](CC2CCCCC2)N(C)C(=O)[C@@H]2CCN2C(=O)[C@H](C)N(C)C1=O` [Compound 95] ([NMeL]I[NMeA][Aze][NMeCha][Sar][hPhe(3-Cl-4-CF3)][NMePhe(3-F)][Ac5c][NMeGly(cPent)][NMeD]-NMe2; lactam N-11) and `CC[C@H](C)[C@@H]1NC(=O)[C@H](CC(C)C)N(C)C(=O)C[C@@H](C(=O)N(C)C)N(C)C(=O)[C@H](C2CCCC2)N(C)C(=O)[C@H](C(C)C)NC(=O)[C@H](C)N(C)C(=O)[C@H](CCc2ccc(C(F)(F)F)c(Cl)c2)NC(=O)CN(C)C(=O)[C@H](CC2CCCCC2)N(C)C(=O)[C@@H]2CCN2C(=O)[C@H](C)N(C)C1=O` [Compound 102] ([NMeL]I[NMeA][Aze][NMeCha][Sar][hPhe(3-Cl-4-CF3)][NMeA]V[NMeGly(cPent)][NMeD]-NMe2; lactam N-11) are the same in IC50: 0.011 µM for the first, 0.011 µM for the second.

Going from `CC[C@H](C)[C@@H]1NC(=O)[C@H](CC(C)C)N(C)C(=O)C[C@@H](C(=O)N2CCCC2)NC(=O)[C@H](CC(C)C)NC(=O)C(C)(C)N(C)C(=O)[C@H](CC(C)C)NC(=O)[C@H](CCc2ccc(C(F)(F)F)c(F)c2)NC(=O)CN(C)C(=O)[C@H](Cc2ccc(Cl)cc2)N(C)C(=O)CN(C)C(=O)CN(C)C1=O` [Compound 96] ([NMeL]I[Sar][Sar][NMePhe(4-Cl)][Sar][hPhe(3-F,4-CF3)]L[NMeAib]LD-Pyrrolidide; lactam N-11) to `CCCC[C@@H]1NC(=O)[C@H](Cc2cccc(I)c2)NC(=O)CN(C)C(=O)[C@H](Cc2ccc(Cl)cc2)N(C)C(=O)CN(C)C(=O)CN(C)C(=O)[C@H]([C@@H](C)CC)NC(=O)[C@H](CC(C)C)N(C)C(=O)C[C@@H](C(=O)N2CCCCC2)N(C)C(=O)[C@H](CC(C)C)NC(=O)[C@H](Cc2ccccc2OC(F)(F)F)N(C)C1=O` [Compound 111] ([NMeL]I[Sar][Sar][NMePhe(4-Cl)][Sar][Phe(3-I)][Nle][X23]L[NMeD]-Piperidide; lactam N-11), the IC50 falls from 0.22 µM to 0.1 µM (2.2-fold).

Going from `CC[C@H](C)[C@@H]1NC(=O)[C@H](CC(C)C)N(C)C(=O)C[C@@H](C(=O)N(C)C)N(C)C(=O)[C@H](C2CCCC2)N(C)C(=O)[C@H](CC(F)(F)F)NC(=O)[C@H](CCN2CC(F)(F)C2)N(C)C(=O)[C@H](CCc2ccc(C(F)(F)F)c(Cl)c2)NC(=O)CN(C)C(=O)[C@H](CC2CCCCC2)N(C)C(=O)[C@@H]2CCN2C(=O)[C@H](C)N(C)C1=O` [Compound 104] ([NMeL]I[NMeA][Aze][NMeCha][Sar][hPhe(3-Cl-4-CF3)][NMeDab(N,N-(CH2CF2CH2))][Abu(4,4,4-F3)][NMeGly(cPent)][NMeD]-NMe2; lactam N-11) to `CC[C@H](C)[C@@H]1NC(=O)[C@H](CC(C)C)N(C)C(=O)C[C@@H](C(=O)N2CCOCC2)N(C)C(=O)[C@H](C2CCCC2)N(C)C(=O)C2(CCCC2)NC(=O)[C@H](CC(=O)N2CCC(F)(F)CC2)N(C)C(=O)[C@H](CCc2ccc(C(F)(F)F)c(Cl)c2)NC(=O)CN(C)C(=O)[C@H](CC2CCCCC2)N(C)C(=O)[C@@H]2CCN2C(=O)[C@H](C)N(C)C1=O` [Compound 105] ([NMeL]I[NMeA][Aze][NMeCha][Sar][hPhe(3-Cl-4-CF3)][NMeD](N(CH2CH2)2CF2)[Ac5c][NMeGly(cPent)][NMeD]-Morpholide; lactam N-11), the IC50 falls from 0.028 µM to 0.0053 µM (5.3-fold). The second is the more potent here.
